Target: T1, human granulocyte elastase (Homo sapiens, UniProt P08246)
T1 construct: Crude extract of human polymorphonuclear leukocytes (PMN) containing elastase activity; endogenous in cells; host or cells: human polymorphonuclear leukocytes (PMN), crude extract
T1 sequence (P08246 30-247 limits assumed): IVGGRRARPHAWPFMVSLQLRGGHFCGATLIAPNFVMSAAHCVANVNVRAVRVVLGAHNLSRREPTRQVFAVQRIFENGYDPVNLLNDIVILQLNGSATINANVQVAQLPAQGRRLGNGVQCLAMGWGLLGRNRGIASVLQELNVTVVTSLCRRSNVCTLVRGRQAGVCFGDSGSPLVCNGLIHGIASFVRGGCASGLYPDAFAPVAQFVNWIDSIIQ
Test: Inhibition of human polymorphonuclear leukocyte elastase via hydrolysis of Boc-AAPAN or Boc-AAPVN
Assay type: biochemical
Settings: crude extract of human PMN; 0.05M TES buffer pH 7.5; substrate 0.2 mM Boc-AAPAN or Boc-AAPVN; read-out: kobs /I, second order rate constant for inactivation of the enzyme
Method: Enzyme Assays for the Inhibition of Human Polymorphonuclear Leukocyte Elastase Via Hydrolysis of N-t-Boc-alanyl-alanyl-prolylalanine-p-nitroanilide (Boc-AAPAN) or N-t-Boc-alanyl-prolylvaline-p-nitroanilide (Boc-AAPVN) Reagent
0.05M TES (N-tris[hydroxymethyl]methyl-2-amino-ethanesulfonic acid) Buffer, pH 7.5.
0.2 mM Boc-AAPAN or Boc-AAPVN.
To prepare substrate, the solid was first dissolved in 10.0 ml DMSO. Buffer at pH 7.5 was then added to a final volume of 100 ml.
Crude extract of human polymorphonuclear leukocytes (PMN) containing elastase activity.
Inhibitors (azetidinones) to be tested dissolved in DMSO just before use.
To 1.0 ml of 0.2 mM Boc-AAPAN in a cuvette, 0.01-0.1 ml of DMSO with or without inhibitor was added. After mixing, a measurement was taken at 410 mμ to detect any spontaneous hydrolysis due to presence of test compound. 0.05 Milliliters of PMN extract was then added and the ΔOD/min at 410 mμ was measured and recorded. Beckman model 35 spectrophotometer was used.
Results are also expressed as Ki, the micromolar concentration of the inhibitor (μM) giving 50% of the control enzyme activity; or as ^k obs/I which is the second order rate constant in per mole per second for inactivation of the enzyme.
The elastase activity in the crude PMN extract may vary from one preparation to another. […]

| SMILES | kinact/KI [M⁻¹ s⁻¹] |
| --- | --- |
| CCCC(NC(=O)N1C(=O)C(CC)(CC)C1Oc1ccc(CP(=O)(OCC)OCC)cc1)c1ccc(C)cc1 [Example 1, (4S)-3,3-Diethyl-1-[(R)-α-n-propyl(4-methyl)-benzylaminocarbonyl)]-4-[4-(diethoxyphosphinylmethyl)-phenoxy]-azetidin-2-one] | 1.2e+06 |
| CCCC(NC(=O)N1C(=O)C(CC)(CC)C1Oc1ccc(CP(=O)(O)O)cc1)c1ccc(C)cc1 [Example 2, (4S)-3,3-Diethyl-1-[(R)-α-n-propyl-(4-methyl)-benzylaminocarbonyl)]-4-[4-(dihydroxyphosphinylmethyl)phenoxy]-azetidin-2-one] | 220000 |
